From PubChem BioAssay AID2060508 (Molecular Pharmacology Branch, DTP, NCI, 2025)

Tested on: 454973-116-R2-J3-PDC spheroids, viability, % test/control
Test: Anticancer human tumor 454973-116-R2-J3-PDC patient-derived pancreatic carcinoma cell line growth inhibition [GQUAD]
Details: spheroids with HUVEC and MSC; for IC50: curve of first compound; for viability, T/C: stronger effect = lower value
Method in brief: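 Tumor cells were grown as complex spheroids with HUVEC endothelial cells and mesenchymal stem cells as stroma. G-quadruplex stabilizers were combined with targeted agents over half-log dilutions from near the clinical Cmax, or from 10 microM.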
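Also: spheroids exposed to compounds for seven days.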
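For viability, T/C in this document: 100% = DMSO vehicle control viability.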

## O=C(c1cc(Cc2n[nH]c(=O)c3ccccc23)ccc1F)N1CCN(C(=O)C2CC2)CC1 + CN(C)c1ccc(Nc2c3ccc(NC(=O)CCN4CCCC4)cc3nc3cc(NC(=O)CCN4CCCC4)ccc23)cc1
Second compound 0.0316 µM
  IC50: > 10 µM
Second compound 0.1 µM
  IC50: > 10 µM
Second compound 0.316 µM
  IC50: > 10 µM
Second compound 1 µM
  IC50: > 10 µM
Second compound 3.16 µM
  IC50: > 10 µM
Second compound 10 µM
  IC50: > 10 µM
Second compound 0.0316 µM, first compound 0.0316 µM
  viability, T/C: 111%
Second compound 0.0316 µM, first compound 0.1 µM
  viability, T/C: 95%
Second compound 0.0316 µM, first compound 0.316 µM
  viability, T/C: 101%
Second compound 0.0316 µM, first compound 1 µM
  viability, T/C: 97.3%
Second compound 0.0316 µM, first compound 3.16 µM
  viability, T/C: 85.1%
Second compound 0.0316 µM, first compound 10 µM
  viability, T/C: 61.4%
Second compound 0.1 µM, first compound 0.0316 µM
  viability, T/C: 108%
Second compound 0.1 µM, first compound 0.1 µM
  viability, T/C: 96.7%
Second compound 0.1 µM, first compound 0.316 µM
  viability, T/C: 99.3%
Second compound 0.1 µM, first compound 1 µM
  viability, T/C: 93.1%
Second compound 0.1 µM, first compound 3.16 µM
  viability, T/C: 79.6%
Second compound 0.1 µM, first compound 10 µM
  viability, T/C: 60.8%
Second compound 0.316 µM, first compound 0.0316 µM
  viability, T/C: 104%
Second compound 0.316 µM, first compound 0.1 µM
  viability, T/C: 91.6%
Second compound 0.316 µM, first compound 0.316 µM
  viability, T/C: 93.6%
Second compound 0.316 µM, first compound 1 µM
  viability, T/C: 88.2%
Second compound 0.316 µM, first compound 3.16 µM
  viability, T/C: 82.6%
Second compound 0.316 µM, first compound 10 µM
  viability, T/C: 65.1%
Second compound 1 µM, first compound 0.0316 µM
  viability, T/C: 88.5%
Second compound 1 µM, first compound 0.1 µM
  viability, T/C: 91.9%
Second compound 1 µM, first compound 0.316 µM
  viability, T/C: 98.2%
Second compound 1 µM, first compound 1 µM
  viability, T/C: 74.5%
Second compound 1 µM, first compound 3.16 µM
  viability, T/C: 70.7%
Second compound 1 µM, first compound 10 µM
  viability, T/C: 59.3%
Second compound 3.16 µM, first compound 0.0316 µM
  viability, T/C: 90.7%
Second compound 3.16 µM, first compound 0.1 µM
  viability, T/C: 91.7%
Second compound 3.16 µM, first compound 0.316 µM
  viability, T/C: 92.7%
Second compound 3.16 µM, first compound 1 µM
  viability, T/C: 74.1%
Second compound 3.16 µM, first compound 3.16 µM
  viability, T/C: 75.2%
Second compound 3.16 µM, first compound 10 µM
  viability, T/C: 57.1%
Second compound 10 µM, first compound 0.0316 µM
  viability, T/C: 75.8%
Second compound 10 µM, first compound 0.1 µM
  viability, T/C: 75.2%
Second compound 10 µM, first compound 0.316 µM
  viability, T/C: 67.9%
Second compound 10 µM, first compound 1 µM
  viability, T/C: 67.4%
Second compound 10 µM, first compound 3.16 µM
  viability, T/C: 63.5%
Second compound 10 µM, first compound 10 µM
  viability, T/C: 51.7%
